In patent US20240383856A1 (Zedira GmbH, priority 2021, published 2024):

Legend:
[1] = Caco-2 permeability assay (CacoReady kit); format: in vitro ADME; details: human, Caco-2, Caco-2 barrier, CacoReady kit; above 1×10^−6 cm/s classified as permeable
Outline: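 Read-out is the permeability coefficient Papp, obtained from transport across a Caco-2 barrier prepared from a ready-to-use kit following the manufacturer's instructions.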

[2] = logD by shake flask method (octanol / PBS pH 7.4, HPLC); format: physicochemical; details: octanol / PBS pH 7.4, shake flask
Outline: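 Shake-flask partition of compound between octanol and phosphate-buffered saline at pH 7.4, with each phase quantified by HPLC to give LogD.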

[3] = target: T1, recombinant human transglutaminase 2 (Homo sapiens, UniProt P21980); assay: Transglutaminase assay (DCC-assay): incorporation of dansylcadaverine into dimethylcasein; format: biochemical; details: recombinant human TG2 10 nM; dansylcadaverine incorporation into dimethylcasein; read-out: IC50 TG2
T1 construct: purchased Zedira T022
T1 sequence (P21980 1-687): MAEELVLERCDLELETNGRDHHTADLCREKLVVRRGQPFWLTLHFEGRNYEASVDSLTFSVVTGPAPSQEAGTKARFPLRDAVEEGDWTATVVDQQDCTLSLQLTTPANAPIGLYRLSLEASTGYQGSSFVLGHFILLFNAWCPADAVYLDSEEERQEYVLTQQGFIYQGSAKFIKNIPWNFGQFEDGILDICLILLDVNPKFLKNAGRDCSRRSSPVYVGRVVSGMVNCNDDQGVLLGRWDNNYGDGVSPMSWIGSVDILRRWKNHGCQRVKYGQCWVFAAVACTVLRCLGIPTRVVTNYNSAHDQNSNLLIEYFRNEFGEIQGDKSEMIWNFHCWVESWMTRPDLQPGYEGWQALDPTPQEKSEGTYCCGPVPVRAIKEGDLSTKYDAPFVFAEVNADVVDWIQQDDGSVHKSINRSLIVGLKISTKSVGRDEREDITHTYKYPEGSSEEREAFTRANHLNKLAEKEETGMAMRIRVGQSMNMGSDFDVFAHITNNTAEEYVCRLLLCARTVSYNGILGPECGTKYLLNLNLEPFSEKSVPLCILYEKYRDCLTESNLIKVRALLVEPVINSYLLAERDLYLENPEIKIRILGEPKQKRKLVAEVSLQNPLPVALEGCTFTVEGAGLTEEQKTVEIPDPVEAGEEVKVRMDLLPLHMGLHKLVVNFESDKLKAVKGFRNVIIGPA
Outline: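 Recombinant human TG2 (10 nM final) incorporates dansylcadaverine into N,N-dimethylcasein. Reaction mix: 50 mM Tris-HCl, 10 mM CaCl2, 10 mM glutathione, 2.5% glycerol, 16.7 µM dansylcadaverine, 4 µM dimethylcasein, 200 mM NaCl, pH 8.0. Fluorescence (ex 330/em 500 nm) was followed 30 min at 37 °C; the 20–30 min slope, expressed as % of 2% DMSO control, gave IC50.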

CNC(=O)C(=O)CC[C@H](NC(=O)c1scc(Br)c1C)C(=O)Nc1cccn(CC(=O)NC2C3CC4CC(C3)CC2C4)c1=O (stereo partly drawn) [II-41, (S)-2-(4-bromo-3-methylthiophene-2-carboxamido)-N1-(1-(2-(2-adamantylamino)-2-oxoethyl)-2-oxo-1,2-dihydropyridin-3-yl)-N6-methyl-5-oxohexanediamide]
Papp [1]: 1 to 10 ×10⁻⁶ cm/s
logD [2]: 3 to 5
IC50 [3]: 40 to 400 nM

CNC(=O)C(=O)CC[C@H](NC(=O)c1oc2ccccc2c1C)C(=O)Nc1cccn(CC(=O)NC23CCCC4CC(CCC42)C3)c1=O (stereo partly drawn) [II-103, (S)-N1-(1-(2-(4-homoisotwistane-3-amino)-2-oxoethyl)-2-oxo-1,2-dihydropyridin-3-yl)-N6-methyl-2-(3-methylbenzofuran-2-carboxamido)-5-oxohexanediamide]
Papp [1]: 1 to 10 ×10⁻⁶ cm/s
logD [2]: 1 to 3
IC50 [3]: 40 to 400 nM

CNC(=O)C(=O)CC[C@H](NC(=O)c1cn(C)nn1)C(=O)Nc1cccn(CC(=O)NC2C3CC4CC(C3)CC2C4)c1=O (stereo partly drawn) [II-133, (S)-N1-(1-(2-(2-adamantylamino)-2-oxoethyl)-2-oxo-1,2-dihydropyridin-3-yl)-N6-methyl-2-(1-methyl-1H-1,2,3-triazole-4-carboxamido)-5-oxohexanediamide]
Papp [1]: 1 to 10 ×10⁻⁶ cm/s
logD [2]: < 1
IC50 [3]: 400 to 2500 nM

CNC(=O)C(=O)CC[C@H](NC(=O)c1ccc2ccoc2c1)C(=O)Nc1cccn(CC(=O)NC2C3CC4CC2CC(C(N)=O)(C4)C3)c1=O (stereo partly drawn) [II-195, (S)-2-(benzofuran-6-carboxamido)-N1-(1-(2-(4-aminoadamantane-1-carboxamide)-2-oxoethyl)-2-oxo-1,2-dihydropyridin-3-yl)-N6-methyl-5-oxohexanediamide]
Papp [1]: < 1 ×10⁻⁶ cm/s
logD [2]: < 1
IC50 [3]: 40 to 400 nM

CNC(=O)C(=O)CC[C@H](NC(=O)c1snnc1C)C(=O)Nc1cccn(CC(=O)NC2C3CC4CC(C3)CC2C4)c1=O (stereo partly drawn) [II-141, (S)-N1-(1-(2-(2-adamantylamino)-2-oxoethyl)-2-oxo-1,2-dihydropyridin-3-yl)-N6-methyl-2-(4-methyl-1,2,3-thiadiazole-5-carboxamido)-5-oxohexanediamide]
Papp [1]: < 1 ×10⁻⁶ cm/s
logD [2]: < 1
IC50 [3]: 40 to 400 nM

CNC(=O)C(=O)CC[C@H](NC(=O)c1ccc2c(c1)CCCN2)C(=O)Nc1cccn(CC(=O)NC23CCC(C2)C3)c1=O [II-185, (S)-N1-(1-(2-(bicyclo[2.1.1]hexan-1-ylamino)-2-oxoethyl)-2-oxo-1,2-dihydropyridin-3-yl)-N6-methyl-5-oxo-2-(1,2,3,4-tetrahydroquinoline-6-carboxamido)hexanediamide]
Papp [1]: < 1 ×10⁻⁶ cm/s
logD [2]: < 1
IC50 [3]: 400 to 2500 nM

C=CCNC(=O)C(=O)CC[C@H](NC(=O)c1cc2ccccc2o1)C(=O)Nc1cccn(CC(=O)NC2C3CC4CC(C3)CC2C4)c1=O (stereo partly drawn) [II-119, (S)-N1-allyl-5-(benzofuran-2-carboxamido)-N6-(1-(2-(2-adamantylamino)-2-oxoethyl)-2-oxo-1,2-dihydropyridin-3-yl)-2-oxohexanediamide]
Papp [1]: 1 to 10 ×10⁻⁶ cm/s
logD [2]: 3 to 5
IC50 [3]: 40 to 400 nM

CNC(=O)C(=O)CC[C@H](NC(=O)C1CCc2ccccc2C1)C(=O)Nc1cccn(CC(=O)NC2C3CC4CC2CC(C(=O)N(C)C)(C4)C3)c1=O (stereo partly drawn) [II-174, (2S)-N1-(1-(2-(4-aminoadamantane-N,N-dimethyl-1-carboxamide)-2-oxoethyl)-2-oxo-1,2-dihydropyridin-3-yl)-N6-methyl-5-oxo-2-(1,2,3,4-tetrahydronaphthalene-2-carboxamido)hexanediamide]
Papp [1]: < 1 ×10⁻⁶ cm/s
logD [2]: < 1
IC50 [3]: 40 to 400 nM

CNC(=O)C(=O)CC[C@H](NC(=O)c1cc(Br)sc1Br)C(=O)Nc1cccn(CC(=O)NC2C3CC4CC(C3)CC2C4)c1=O (stereo partly drawn) [II-29, (S)-2-(2,5-dibromothiophene-3-carboxamido)-N1-(1-(2-(2-adamantylamino)-2-oxoethyl)-2-oxo-1,2-dihydropyridin-3-yl)-N6-methyl-5-oxohexanediamide]
Papp [1]: 1 to 10 ×10⁻⁶ cm/s
logD [2]: 3 to 5
IC50 [3]: < 40 nM

CCC12CC3CC(C1)C(NC(=O)Cn1cccc(NC(=O)[C@H](CCC(=O)C(=O)NC)NC(=O)c4ccc5cnccc5n4)c1=O)C(C3)C2 (stereo partly drawn) [II-187, (S)-N1-(1-(2-(5-ethyladamantane-2-amino)-2-oxoethyl)-2-oxo-1,2-dihydropyridin-3-yl)-N6-methyl-2-(1,6-naphthyridine-2-carboxamido)-5-oxohexanediamide]
Papp [1]: 1 to 10 ×10⁻⁶ cm/s
logD [2]: 3 to 5
IC50 [3]: 400 to 2500 nM

O=C(Cn1cccc(NC(=O)[C@H](CCC(=O)C(=O)NC2CCCC2)NC(=O)c2cnc3ccc(OC(F)(F)F)cc3c2O)c1=O)N[C@@H]1C[C@@H]2CC[C@H]1C2 [II-180, (S)-N1-(1-(2-((1S,2R,4R)-bicyclo[2.2.1]heptan-2-ylamino)-2-oxoethyl)-2-oxo-1,2-dihydropyridin-3-yl)-N6-cyclopentyl-2-(4-hydroxy-6-(trifluoromethoxy)quinoline-3-carboxamido)-5-oxohexanediamide]
Papp [1]: < 1 ×10⁻⁶ cm/s
logD [2]: 3 to 5
IC50 [3]: 400 to 2500 nM

CNC(=O)C(=O)CC[C@H](NC(=O)c1oc2ccccc2c1C)C(=O)Nc1cccn(CC(=O)NC2C3CC4CC2CC(F)(C4)C3)c1=O (stereo partly drawn) [II-69, (S)-N1-(1-(2-(5-fluoroadamantane-2-amino)-2-oxoethyl)-2-oxo-1,2-dihydropyridin-3-yl)-N6-methyl-2-(3-methylbenzofuran-2-carboxamido)-5-oxohexanediamide]
Papp [1]: 1 to 10 ×10⁻⁶ cm/s
logD [2]: 1 to 3
IC50 [3]: < 40 nM

CNC(=O)C(=O)CC[C@H](NC(=O)c1nc(Br)sc1C)C(=O)Nc1cccn(CC(=O)NC2C3CC4CC(C3)CC2C4)c1=O (stereo partly drawn) [II-34, (S)-2-(2-bromo-5-methylthiazole-4-carboxamido)-N1-(1-(2-(2-adamantylamino)-2-oxoethyl)-2-oxo-1,2-dihydropyridin-3-yl)-N6-methyl-5-oxohexanediamide]
Papp [1]: > 10 ×10⁻⁶ cm/s
logD [2]: 1 to 3
IC50 [3]: 40 to 400 nM

CNC(=O)C(=O)CC[C@H](NC(=O)c1oc(Br)cc1C)C(=O)Nc1cccn(CC(=O)NC2C3CC4CC(C3)CC2C4)c1=O (stereo partly drawn) [II-25, (S)-2-(5-bromo-3-methylfuran-2-carboxamido)-N1-(1-(2-(2-adamantylamino)-2-oxoethyl)-2-oxo-1,2-dihydropyridin-3-yl)-N6-methyl-5-oxohexanediamide]
Papp [1]: 1 to 10 ×10⁻⁶ cm/s
logD [2]: 1 to 3
IC50 [3]: 40 to 400 nM

C=CCNC(=O)C(=O)CC[C@H](NC(=O)c1oc2ccccc2c1C)C(=O)Nc1cccn(CC(=O)NC2C3CC4CC(C3)CC2C4)c1=O (stereo partly drawn) [II-117, (S)-N1-allyl-N6-(1-(2-(2-adamantylamino)-2-oxoethyl)-2-oxo-1,2-dihydropyridin-3-yl)-5-(3-methylbenzofuran-2-carboxamido)-2-oxohexanediamide]
Papp [1]: 1 to 10 ×10⁻⁶ cm/s
logD [2]: 3 to 5
IC50 [3]: 40 to 400 nM

CNC(=O)C(=O)CC[C@H](NC(=O)c1cc2c(F)c(F)ccc2[nH]1)C(=O)Nc1cccn(CC(=O)NC2C3CC4CC(C3)CC2C4)c1=O (stereo partly drawn) [II-10, (S)-2-(4,5-difluoro-1H-indole-2-carboxamido)-N1-(1-(2-(2-adamantylamino)-2-oxoethyl)-2-oxo-1,2-dihydropyridin-3-yl)-N6-methyl-5-oxohexanediamide]
Papp [1]: < 1 ×10⁻⁶ cm/s
logD [2]: 3 to 5
IC50 [3]: < 40 nM

CNC(=O)C(=O)CC[C@H](NC(=O)c1oc2ccccc2c1C)C(=O)Nc1cccn(CC(=O)N[C@@H]2C[C@@H]3C[C@H]([C@H]2C)C3(C)C)c1=O [II-100, (S)-N1-methyl-5-(3-methylbenzofuran-2-carboxamido)-2-oxo-N6-(2-oxo-1-(2-oxo-2-((1R,2R,3R,5S)-2,6,6-trimethylbicyclo[3.1.1]heptan-3-ylamino)ethyl)-1,2-dihydropyridin-3-yl)hexanediamide]
Papp [1]: 1 to 10 ×10⁻⁶ cm/s
logD [2]: 3 to 5
IC50 [3]: 40 to 400 nM

CNC(=O)C(=O)CC[C@H](NC(=O)c1coc(C(C)=O)n1)C(=O)Nc1cccn(CC(=O)NC23CC(C2)C3)c1=O [II-168, (S)-2-(2-acetyloxazole-4-carboxamido)-N1-(1-(2-(bicyclo[1.1.1]pentan-1-ylamino)-2-oxoethyl)-2-oxo-1,2-dihydropyridin-3-yl)-N6-methyl-5-oxohexanediamide]
Papp [1]: < 1 ×10⁻⁶ cm/s
logD [2]: < 1
IC50 [3]: 40 to 400 nM
